The values that follow come from patent US20260232726A1, “USE OF BORON FOR THE TREATMENT OF LEISHMANIASIS DISEASE OF NEURONAL ORIGIN” (YEDITEPE UNIVERSITESI, priority 2023, published 2026).

Read-outs that look alike come from different tables or passages of the source.

The test system of data set [1] is C8-S astrocyte cells infected with L. infantum parasites. The experiment in a line: Infection rate of astrocytes infected with parasites after SPT treatment (flow cytometer). The class given is cell-based, Leishmania infantum. As for the experimental part:
Leishmania infimtum (MHOM/MA/67/TTMA-P263) promastigotes are incubated in RPMI medium (heat inactivated 1 0/4) fetal bovine serum, 2 mM L-glutamine, 20 mM HEPES, 100 U/ml penicillin, 100 μg/ml streptomycin) at 27° C. Parasites reaching the logarithmic phase (10^6/ml) are made infective.
(§1) Astrocyte C8-S murine cell line (ATCC) is grown as monolayer in RPMI 1640 nutrient medium (2 mM L-glutamine, 100 U/ml penicillin, 100 μg/ml streptomycin) with 10% FBS, heat inactivated in a humidified atmosphere environment with 5% C02 at 37° C. Cells are passaged at 3-day intervals.
C8-S astrocytes and L. infantum promastigotes were stained with PKH26 (Red Fluorescent Cell Linker Kit, Sigma-Aldrich) and PKH67 (Green Fluorescent Cell Linker Kit, Sigma-Aldrich), respectively, according to the procedure described previously in the article by Islek et al. (2021). A total cell concentration of 10^7 cells/ml was used. Before infection, the staining rate of parasites and cells was determined by flow cytometry.
5. Treating the Infected Astrocytes with SPT
The effect of SPT on the proliferation of astrocyte cells infected with parasites is analyzed. In summary, astrocytes are infected with parasites at 37° cat a ratio of 10:1 (parasite: astrocyte). After 3 and a half hours, infected astrocytes are washed with medium to remove the remaining parasites. Infected astrocytes are left to incubate with SPT at different concentration ranges for 3 days at 37° C., fixed at the end of 3 days and the infection rate is determined by flow cytometer. The percentage of infection is determined according to the following formula: […]

Data set [2] has as its system healthy C8-S astrocyte cells. Kind of data set: Cell viability of healthy astrocytes treated with SPT (MTS method). The class given is cell-based, murine. The procedure: as §1
3. Treating Astrocytes with SPT and Determining Cell Viability
Cells were seeded in 96-well culture dishes (Coming Glasswork, Coming, NY) in Dulbecco's modified Eagle's medium (DMEM) containing 10% fetal bovine serum (lnvitrogen) and 1% PSA (Biological Industries, Beit Haemek, Israel) at 8.000 cells/well and then treated with SPT, and cell viability levels were measured on days 1, 2 and 3. Cell viability is measured by using 3-(4,5-di-methyl-thiazol-2-yl)-5-(3-carboxy-methoxy-phenyl)-2-(4-sulfo-phenyl)-2H-tetrazolium (MTS)-method (CellTiter96 AqueousOne Solution; Promega, Southampton, UK). 10 μl MTS solution is added onto the cells in 100 μl growth medium and they are incubated in the dark for 2 hours. After the incubation period, viability analysis is obtained by performing absorbance measurement with an ELISA plate reader (Biotek, Winooski, VT) at 490 nm wavelength.
A general note: Formazan colour is commonly taken as a measure of viable cells.

Data set [3] has as its system GSH level in astrocytes infected with Leishmania. Kind of data set: Oxidative stress by measurement of glutathione (GSH) level in infected astrocytes (DTNB). The conditions noted are these: 50, 100, 150 and 200 μM SPT; 24 hours. The data set is classed as cell-based, murine. As for the experimental part:
6. Determining the Oxidative Stress by Measurement of Glutathione (GSH) Level in Astrocytes Infected with Leishmania
To determine the GSH level of infected astrocytes, cell lysate (50 ul) is suspended in DTNB (Ellman's reagent—5,5′-Dithiobis(2-nitrobenzoic acid)) (10 uL). Then, EDTA buffer solution (pH 8.2) is added to this mixture in a 96-well plate. After incubation in the dark at 37° C. for 30 minutes, absorbance is measured colorimetrically at a wavelength of 412 nm using a UV spectrophotometer (Thermo Scientific, Finland). The results are expressed as μmol/g protein.

The next data set deals with leishmaniasis. The note with it: cited from earlier work.
[4] abbreviates: SPT 50-400 μM, 24, 48 and 72 hours.

For the molecule `O.O.O.O.[Na+].[O-]B1OO1` [SPT, sodium perborate tetrahydrate], the “infection rate of infected astrocytes” value in data set [1] (75 μM SPT, 24 hours, negative control approximately 23%) was 20±3.33%; in data set [1] (75 μM SPT, 72 hours, negative control 13%), “approximately 4%”; in data set [1] (100 μM SPT, 24 hours, negative control approximately 23%), 17±2.86%; in data set [1] (150 μM SPT, 24 hours, negative control approximately 23%), 11.89±3.56%; in data set [1] (200 μM SPT, 24 hours, negative control approximately 23%) it was 7.97±1.51%; in data set [1] (400 μM SPT, 24 hours, negative control approximately 23%), 12.63±1.78%. Also, the “infection rate of infected astrocytes” value in data set [1] (100, 150, 200, and 400 μM SPT, 72 hours, negative control 13%) was approximately 7%. The “cell viability on astrocytes infected with Leishmania infantum promastigotes” value in data set [1] (setting [4]) is given as “statistically decreased cell viability”. The “effect on cells infected with L. infantum parasites” value in data set [1] (SPT 75-200 μM) was “significant reduction”. Also, in data set [2] (100 μM SPT, after 72 hours), the “astrocyte cell viability compared to the negative control group” value was 100%. Besides, the “cell viability of healthy C8-S astrocytes” value in data set [2] (200 μM SPT, 24, 48 and 72 hours) is “above 100%”. The “toxic effect on healthy cells” value in data set [2] (setting [4]) is listed as “showed no toxic effect on healthy cells”. For the same molecule, in data set [3], the “GSH levels in infected astrocytes compared to the negative control” value is “significantly inducing GSH levels”.
Take `C[C@@H]1[C@H](O)[C@@H](C)/C=C/C=C/C=C/C=C/C=C/C=C/C=C/[C@H](O[C@@H]2O[C@H](C)[C@@H](O)[C@H](N)[C@@H]2O)C[C@@H]2O[C@](O)(C[C@@H](O)C[C@@H](O)[C@H](O)CC[C@@H](O)C[C@@H](O)CC(=O)O[C@H]1C)C[C@H](O)[C@H]2C(=O)O` [Amphotericin B]: the cure in the data set with leishmaniasis (6-month therapy) is 97%. In addition, in the data set with leishmaniasis (cases where antimonial resistance is observed), the cure rate is on record as approximately 100%.
Turning to `CCCCCCCCCCCCCCCCOP(=O)([O-])OCC[N+](C)(C)C` [Miltefosine], the cure was 94% in the data set on leishmaniasis (miltefosine data compared with 6-month Amphotericin B therapy) and 95-100% with leishmaniasis (oral, 3-4-week treatment).
